According to PubChem BioAssay (NCI):
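Cells were grown in 96-well plates and exposed to each compound for 48 hours at five concentrations; endpoints were interpolated linearly between bracketing concentrations, or set to the highest concentration if not reached. At the TGI there is no net growth.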

How the values were obtained:
Test in all cases: NCI-60 cell line screen, 48 h
786-0 renal = system: 786-0 renal
A498 renal = system: A498 renal
ACHN renal = system: ACHN renal
BT-549 breast = system: BT-549 breast
CAKI-1 renal = system: CAKI-1 renal
CCRF-CEM leukemia = system: CCRF-CEM leukemia
COLO 205 colon = system: COLO 205 colon
DU-145 prostate = system: DU-145 prostate
EKVX NSCLC = system: EKVX NSCLC
HCT-116 colon = system: HCT-116 colon
HCT-15 colon = system: HCT-15 colon
HL-60(TB) leukemia = system: HL-60(TB) leukemia
HOP-62 NSCLC = system: HOP-62 NSCLC
HS 578T breast = system: HS 578T breast
HT29 colon = system: HT29 colon
IGROV1 ovarian = system: IGROV1 ovarian
K-562 leukemia = system: K-562 leukemia
KM12 colon = system: KM12 colon
LOX IMVI melanoma = system: LOX IMVI melanoma
M14 melanoma = system: M14 melanoma
MALME-3M melanoma = system: MALME-3M melanoma
MCF7 breast = system: MCF7 breast
MDA-MB-231 breast = system: MDA-MB-231 breast
MDA-MB-435 = system: MDA-MB-435
MDA-N = system: MDA-N
MOLT-4 leukemia = system: MOLT-4 leukemia
NCI-H226 lung = system: NCI-H226 lung
NCI-H23 lung = system: NCI-H23 lung
NCI/ADR-RES ovarian = system: NCI/ADR-RES ovarian
OVCAR-3 ovarian = system: OVCAR-3 ovarian
OVCAR-5 ovarian = system: OVCAR-5 ovarian
OVCAR-8 ovarian = system: OVCAR-8 ovarian
PC-3 prostate = system: PC-3 prostate
RPMI-8226 leukemia = system: RPMI-8226 leukemia
RXF 393 renal = system: RXF 393 renal
SF-268 CNS = system: SF-268 CNS
SF-295 CNS = system: SF-295 CNS
SF-539 CNS = system: SF-539 CNS
SK-MEL-2 melanoma = system: SK-MEL-2 melanoma
SK-MEL-28 melanoma = system: SK-MEL-28 melanoma
SK-MEL-5 melanoma = system: SK-MEL-5 melanoma
SK-OV-3 ovarian = system: SK-OV-3 ovarian
SN12C renal = system: SN12C renal
SNB-19 CNS = system: SNB-19 CNS
SR leukemia = system: SR leukemia
SW-620 colon = system: SW-620 colon
T-47D breast = system: T-47D breast
TK-10 renal = system: TK-10 renal
U251 CNS = system: U251 CNS
UACC-257 melanoma = system: UACC-257 melanoma
UACC-62 melanoma = system: UACC-62 melanoma
UO-31 renal = system: UO-31 renal
A549 NSCLC = system: A549 NSCLC
HCC-2998 colon = system: HCC-2998 colon
NCI-H460 lung = system: NCI-H460 lung
NCI-H522 lung = system: NCI-H522 lung
OVCAR-4 ovarian = system: OVCAR-4 ovarian
SNB-75 CNS = system: SNB-75 CNS

For `O=C(c1ccc(Cl)cc1)N(C(=S)OCc1ccccn1)c1ccccc1`, the TGI (786-0 renal) was > 100 µM, the TGI (A498 renal) was > 100 µM and the TGI (ACHN renal) was > 100 µM. For the same molecule, the TGI (BT-549 breast) was > 100 µM, the TGI (CAKI-1 renal) was > 100 µM and the TGI (CCRF-CEM leukemia) was > 100 µM. For the same molecule, the TGI (COLO 205 colon) was > 100 µM, the TGI (DU-145 prostate) was > 100 µM and the TGI (EKVX NSCLC) was 84.4 µM. For the same molecule, the TGI (HCT-116 colon) was > 100 µM, the TGI (HCT-15 colon) was > 100 µM and the TGI (HL-60(TB) leukemia) was > 100 µM. The TGI (HOP-62 NSCLC) was 75.7 µM, the TGI (HS 578T breast) was > 100 µM and the TGI (HT29 colon) was > 100 µM. The TGI (IGROV1 ovarian) was > 100 µM, the TGI (K-562 leukemia) was > 100 µM and the TGI (KM12 colon) was > 100 µM. The TGI (LOX IMVI melanoma) was > 100 µM, the TGI (M14 melanoma) was > 100 µM and the TGI (MALME-3M melanoma) was > 100 µM. For the same molecule, the TGI (MCF7 breast) was > 100 µM, the TGI (MDA-MB-231 breast) was > 100 µM and the TGI (MDA-MB-435) was > 100 µM. The TGI (MDA-N) was > 100 µM, the TGI (MOLT-4 leukemia) was > 100 µM and the TGI (NCI-H226 lung) was > 100 µM. The TGI (NCI-H23 lung) was > 100 µM, the TGI (NCI/ADR-RES ovarian) was > 100 µM and the TGI (OVCAR-3 ovarian) was > 100 µM. The TGI (OVCAR-5 ovarian) was > 100 µM, the TGI (OVCAR-8 ovarian) was > 100 µM and the TGI (PC-3 prostate) was > 100 µM. For the same molecule, the TGI (RPMI-8226 leukemia) was > 100 µM, the TGI (RXF 393 renal) was 56.6 µM and the TGI (SF-268 CNS) was > 100 µM. The TGI (SF-295 CNS) was > 100 µM, the TGI (SF-539 CNS) was > 100 µM and the TGI (SK-MEL-2 melanoma) was > 100 µM. The TGI (SK-MEL-28 melanoma) was > 100 µM, the TGI (SK-MEL-5 melanoma) was > 100 µM and the TGI (SK-OV-3 ovarian) was > 100 µM. The TGI (SN12C renal) was > 100 µM, the TGI (SNB-19 CNS) was > 100 µM and the TGI (SR leukemia) was > 100 µM. For the same molecule, the TGI (SW-620 colon) was > 100 µM, the TGI (T-47D breast) was 93.5 µM and the TGI (TK-10 renal) was > 100 µM. The TGI (U251 CNS) was > 100 µM, the TGI (UACC-257 melanoma) was > 100 µM and the TGI (UACC-62 melanoma) was > 100 µM. The TGI (UO-31 renal) was > 100 µM.
For `O=C1C=CC(=O)c2c1ccc1c3ccccc3n(-c3ccccc3[N+](=O)[O-])c21`, the TGI (A498 renal) was 35.6 µM, the TGI (A549 NSCLC) was > 64.8 µM and the TGI (ACHN renal) was 3.46 µM. The TGI (BT-549 breast) was 14.6 µM, the TGI (CAKI-1 renal) was 3.64 µM and the TGI (CCRF-CEM leukemia) was > 31.6 µM. The TGI (COLO 205 colon) was 4.35 µM, the TGI (DU-145 prostate) was 18.9 µM and the TGI (EKVX NSCLC) was 23.7 µM. The TGI (HCC-2998 colon) was 13.2 µM, the TGI (HCT-116 colon) was > 25.3 µM and the TGI (HCT-15 colon) was 9 µM. The TGI (HOP-62 NSCLC) was > 53.7 µM, the TGI (HS 578T breast) was 36.4 µM and the TGI (HT29 colon) was > 74.1 µM. For the same molecule, the TGI (IGROV1 ovarian) was 4.9 µM, the TGI (K-562 leukemia) was > 100 µM and the TGI (KM12 colon) was 35.8 µM. For the same molecule, the TGI (LOX IMVI melanoma) was 4.76 µM, the TGI (M14 melanoma) was 4.58 µM and the TGI (MALME-3M melanoma) was 5.63 µM. The TGI (MCF7 breast) was 20 µM, the TGI (MDA-MB-231 breast) was 7.88 µM and the TGI (MDA-MB-435) was 5.6 µM. For the same molecule, the TGI (MDA-N) was > 21.6 µM, the TGI (MOLT-4 leukemia) was > 100 µM and the TGI (NCI-H226 lung) was 50.3 µM. The TGI (NCI-H23 lung) was 19.4 µM, the TGI (NCI-H460 lung) was > 100 µM and the TGI (NCI-H522 lung) was 2.87 µM. For the same molecule, the TGI (NCI/ADR-RES ovarian) was 20.5 µM, the TGI (OVCAR-4 ovarian) was 10.2 µM and the TGI (OVCAR-5 ovarian) was 37.5 µM. For the same molecule, the TGI (PC-3 prostate) was 12.4 µM, the TGI (RPMI-8226 leukemia) was > 24.1 µM and the TGI (RXF 393 renal) was 3.24 µM. For the same molecule, the TGI (SF-268 CNS) was 6.82 µM, the TGI (SF-295 CNS) was > 56.7 µM and the TGI (SF-539 CNS) was > 65.2 µM. The TGI (SK-MEL-2 melanoma) was 31.6 µM, the TGI (SK-MEL-28 melanoma) was 50.8 µM and the TGI (SK-MEL-5 melanoma) was 21.2 µM. For the same molecule, the TGI (SK-OV-3 ovarian) was 33 µM, the TGI (SN12C renal) was > 71.5 µM and the TGI (SNB-19 CNS) was 29.3 µM. The TGI (SNB-75 CNS) was 35.7 µM, the TGI (SR leukemia) was > 100 µM and the TGI (SW-620 colon) was > 100 µM. For the same molecule, the TGI (T-47D breast) was 5.19 µM, the TGI (TK-10 renal) was 5.89 µM and the TGI (U251 CNS) was 21.2 µM. For the same molecule, the TGI (UACC-257 melanoma) was 13.1 µM, the TGI (UACC-62 melanoma) was 10.2 µM and the TGI (UO-31 renal) was 2.87 µM.
